# Laboratory results as given in patent publication US9827210B2, “Treatment or prophylaxis of a neurological or neuropsychiatric disorders via ocular administration” (Phovitreal Pty Ltd, priority 2007, dated 2017).
# Key:
# [1] = test system: Sprague-Dawley rats pre-treated with dl-amphetamine; assay: dl-amphetamine-induced psychosis in rats, intravitreal injection, motor tests; assay type: in vivo; details: 2 μl of 12.5 μg/μl into vitreous humor after 5 days of 1 mg/kg dl-amphetamine i.p.; measured three hours after injection; versus 80% DMSO vehicle; FIG. 4
# Protocol: Lesions to the brain dopamine systems in mammalian brain serve as models for various neuropsychiatric disorders. When drugs such as amphetamines are administered to animals for a certain period of time psychotic symptoms develop such as increased activity, agitation and decreased latency time to perform various motor tasks. In other words, opposite to those symptoms seen in Parkinson's disease, the time to perform various motor tasks decreased: they perform them quicker.
# At appropriate concentrations, the addictive drug, dl-amphetamine (1 mg/kg) was injected intraperitoneally to produce psychosis and addiction in Sprague-Dawley rats. After 5 days of such treatment each animal was tested for their level of activity in a computerized activity chamber and on three motor tests. On the day after completion of the injections half the animals received a 2 μl injection of haloperidol (12.5 μg/μl) into the vitreous humor, just in front of the retina. The other half of the animals received a 2 μl injection of vehicle (80% DMSO solution) into the vitreous humor. The effects of such injections on various parameters of movement, such as the latency to ambulate and the latency to retract a front paw, were measured three hours after animals received their intravitreal injection. […]
# [2] = test system: rats with experimental Parkinson's disease; assay: 6-hydroxy dopamine model of Parkinson's disease in rats, intraocular or intravitreal injection; assay type: in vivo; details: bilateral 6-hydroxy dopamine lesion, 2 μl of 10 mMol solution into vitreous humor of both eyes on days 2, 3 and 4 after surgery, versus PD+IOVeh (70% DMSO)
# From the text: At appropriate concentrations, the neurotoxin 6-hydroxy dopamine produces specific and permanent depletion of dopamine in the brain and more specifically of the nigro-striatal dopamine system (Ungerstedt, U. et al, Adv. Neurol., 5, 421, 1974; Willis, G. L. & Armstrong, S. A., Brain Res. Rev., 27, 177, 1998). Intracranial injections of 6-hydroxy dopamine were used to produce a model of Parkinson's disease (and schizophrenia). Bilateral lesions produced a vegetative, akinetic syndrome in which there is a lack of voluntary movement, hunched posture and body weight loss accompanied by a loss in the ability to eat and drink.
# b) After preparatory surgery that permitted access to the brain, rats were induced with bilateral experimental Parkinson's disease by injection of the neurotoxin 6-hydroxy dopamine into the nigro-striatal dopamine system. On days 2, 3 and 4 after surgery a single 2 μl intraocular or intravitreal injection was made into the vitreous humor of both eyes. The solution injected was either a 10 mMol solution of ML-23 (PD+IODrug) or a 10 mMol solution of vehicle (PD+IOVeh). The vehicle used was 70% DMSO. For comparison, a control group was not made Parkinsonian but received intraocular or intravitreal injection of vehicle in the same volume as the experimental groups (C+IOVeh). […]
SMILES,latency to ambulate from a prescribed area [1],latency to retract an elevated limb [1],horizontal movement ([2]; FIG. 1),ability to retract/move the front limb ([2]; FIG. 2)
O=C(CCCN1CCC(O)(c2ccc(Cl)cc2)CC1)c1ccc(F)cc1 [haloperidol],increased,increased,,
COc1ccc2[nH]cc(CCNc3ccc([N+](=O)[O-])cc3[N+](=O)[O-])c2c1 [ML-23],,,better horizontal movement,better performance on the ability to move the front limb
